Values after ≈ are worked out from the molar mass of the structure shown.
Columns and labels:
[1] = test system: Alcaligenes faecalis (ATCC #25094), Enterobacter aerogenes (ATCC #13048), Escherichia coli (ATCC #11229), Pseudomonas aeruginosa (ATCC #10145) and Pseudomonas …; experiment: Bacterial challenge test in laboratory-made wallboard joint compound; format: cell-based; conditions: 200 ppm total active
Excerpt: Because this bacterial challenge test is intended to test the performance of in-can preservatives during long-term storage, only the last day of each seven-day challenge is considered important. The test sample was inoculated with bacteria on the first day of each seven-day challenge.
Bacteria were inoculated into the laboratory-made test wallboard joint formulations at approximately 10^6 CFU/g at time equals zero on the first day of each seven-day cycle. Viability of the bacteria was monitored semi-quantitatively through streak analysis 1, 2, and 7 days after inoculation. This procedure was performed twice for a total of two to four seven-day cycles. A rating of “4” indicates heavy growth, while a rating of “0” indicates undetectable growth, defined as <10 CFU/g of material. Samples free of detectable growth after 7 days are considered to be well-preserved.
For comparison, a blank, unpreserved laboratory-made wallboard joint composition is shown, as well as a laboratory-made wallboard joint composition that is preserved with a commercial formaldehyde-producing preservative, comprising 78 wt % of 2,2′,2″-(hexahydro-1,3,5-triazine-1,3,5-triyl)-triethanol (HHT). The various preservatives were added to the laboratory-made wallboard joint compound at the levels shown, in ppm by weight.

[2] = test system: Pseudomonas aeruginosa (ATCC #10145); experiment: Minimum Inhibitory Concentration (MIC) testing by microbroth dilution; format: cell-based; conditions: ATCC10145, 72 h, 1x Nutrient Broth, 35° C., 3 days, no growth via turbidity

- MIC [2]: 30.8 µg/mL (≈ 204 µM)
Compound: O=c1[nH]sc2ccccc12 [BIT, 1,2-benzisothiazol-3(2H)-one]
- Protection of wallboard joint compound in words [1]: neither 200 ppm BIT nor Ziram alone being capable of protecting the wallboard joint compound

From US20190373892A1, “FORMALDEHYDE-FREE PRESERVATIVES FOR HIGHLY SUSCEPTIBLE PRODUCTS” (Troy Corporation, priority 2018, published 2019)
